Active and inactive are the calls of the source. How the calls were made is not given here.

The EC50 is the concentration that produces a half-maximal response.

The target of the assay is Peptidyl-prolyl cis-trans isomerase FKBP1A (Homo sapiens) (UniProt P62942). The experiment in a line: FKBP12 binders, dose response, biochemical, TR-FRET (AID 1963952). Particulars: FKBP12 binding. (Time-resolved FRET reads energy transfer from a long-lived donor to a nearby acceptor.)
Chain of Peptidyl-prolyl cis-trans isomerase FKBP1A (Homo sapiens) (P62942 whole entry, looked up): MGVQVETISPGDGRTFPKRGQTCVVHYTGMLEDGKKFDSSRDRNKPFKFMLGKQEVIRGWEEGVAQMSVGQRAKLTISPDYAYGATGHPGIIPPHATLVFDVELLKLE
Take `CCC(C)(C)C(=O)C(=O)N1CCCC[C@H]1C(=O)N[C@H](CCc1ccc(OC)cc1)C(=O)N1[C@@H]2CC[C@H]1CC(Nc1nc(NCCc3sc(N)nc3C)nc(NCCn3cnc4ccccc43)n1)C2` (stereo not given in full): the EC50 is 18.4 µM.

Take `CCC(C)(C)C(=O)C(=O)N1CCCC[C@H]1C(=O)N[C@H](CCc1ccc(OC)cc1)C(=O)N1[C@@H]2CC[C@H]1CC(Nc1nc(NCCc3ccccc3)nc(N3CCn4ncnc4C3)n1)C2` (stereo not given in full): the EC50 was 36 µM. The same measure, in the same setting: next, `CCC(C)(C)C(=O)C(=O)N1CCCC[C@H]1C(=O)N[C@H](CCc1ccc(OC)cc1)C(=O)N1[C@@H]2CC[C@H]1CC(Nc1nc(NCCc3sc(N)nc3C)nc(N3CCn4ncnc4C3)n1)C2` (stereo not given in full): 29.5 µM; `CCC(C)(C)C(=O)C(=O)N1CCCC[C@H]1C(=O)N[C@H](CCc1ccc(OC)cc1)C(=O)N1[C@@H]2CC[C@H]1CC(NC(C)=O)C2` (stereo not given in full): 28.9 µM. Take `CC(=O)N1[C@@H]2CC[C@H]1CC(Nc1nc(NCCc3sc(N)nc3C)nc(N3CCn4ncnc4C3)n1)C2` (stereo not given in full): the result was inactive.

Turning to `CCC(C)(C)C(=O)C(=O)N1CCCC[C@H]1C(=O)N[C@H](CCc1ccc(OC)cc1)C(=O)N1[C@@H]2CC[C@H]1CC(Nc1nc(NCCc3sc(N)nc3C)nc(NCc3ccnc(CO)c3)n1)C2` (stereo not given in full), the concentration for a half-maximal effect (EC50) is 36.8 µM. Same read-out and setting: next, `CCC(C)(C)C(=O)C(=O)N1CCCC[C@H]1C(=O)N[C@H](CCc1ccc(OC)cc1)C(=O)N1CC(Nc2nc(NCCc3sc(N)nc3C)nc(NCCn3cnc4ccccc43)n2)C1`: 35 µM. Same read-out and setting: next, `CCC(C)(C)C(=O)C(=O)N1CCCC[C@H]1C(=O)N[C@H](CCc1ccc(OC)cc1)C(=O)N1[C@@H]2CC[C@H]1CC(Nc1nc(NCCc3sc(N)nc3C)nc(N(C)Cc3nnc4n3CCC4)n1)C2` (stereo not given in full): 17.9 µM; `CCC(C)(C)C(=O)C(=O)N1CCCC[C@H]1C(=O)N[C@H](CCc1ccc(OC)cc1)C(=O)N1CC[C@H](Nc2nc(NCCc3sc(N)nc3C)nc(N(C)Cc3nnc4n3CCC4)n2)C1`: 13.3 µM. On the same count and under the same terms, next, `CCC(C)(C)C(=O)C(=O)N1CCCC[C@H]1C(=O)O[C@H](CCc1ccccc1)C(=O)N1[C@@H]2CC[C@H]1CC(Nc1nc(NCCc3sc(N)nc3C)nc(N3CCn4ncnc4C3)n1)C2` (stereo not given in full): 17.1 µM.

The values above are taken from PubChem BioAssay AID1963952 (Xavier Lab, Infectious Disease and Microbiome Program, …, 2024).
